The nature of series [1]: Antimicrobial activity of cisplatin in all assays of the paper. The class given is cell-based. Here is the method:
Following a protocol previously reported by us we used larvae of the greater wax moth Galleria mellonella as a model organism for in vivo toxicity and efficacy.[20] […] Briefly, stock solutions of Pt1 and Pt2 were prepared in DMSO and diluted to final concentrations of 0.4 mM, 100 μM, 10 μM and 1 μM. Due to solubility limitations higher concentrations could not be evaluated. For each concentration five larvae were injected with 10 μL and monitored for 96 hours for survival and health using the G. mellonella Health Index Scoring System.[22]

Series [2] relates to B. subtilis ATCC 6051 type strain. Briefly: MIC in the presence of human serum (serum reversal). The format is cell-based, Bacillus subtilis. Conditions: 10% serum. The text has this: (§1) To obtain some initial insight into the apparent disparity between in vitro and in vivo results, we repeated the MIC experiments against four selected Gram‐positive strains in the presence of 10 % or 50 % human serum (Table S3). Pt1 and Pt2 maintained some antibacterial activity against B. subtilis in the presence of 10 % serum, but a complete loss of activity was observed against MRSA and GISA (50 % serum), and VRE (10 % serum). […] Systemic administration is therefore unlikely to be a suitable administration route for this class of compounds unless an alternative formulation that can prevent serum binding (e. g. by lipid or nanoparticle encapsulation) can be found. […] Further in vivo studies should therefore focus on more suitable disease models. […]
(§2) Antibacterial minimum inhibitory concentration (MIC) assay
(§3) concentration. (in-house screening)
(§4) Bacto Laboratories 212322) at 37 °C overnight.
(§5) The resultant mid-log phase cultures were diluted
(§6) Gram-negative and Gram-positive bacteria, respectively.
(§7) final concentration range of 0.8 – 100 µM.
(§8) inhibitors as positive control. […]

The subject of series [3] is Staphylococcus epidermidis NRS 60, VISE. Briefly: Antibacterial MIC assay, Gram-positive panel. The format is cell-based. Conditions: Table S1 panel; n=4. Here is the method: (§9) Smiles: C1C=CCCC(=CC1)C1=CCCC=CCC1.C[Pt]C.C[Pt]C […]
(§10) ATCC strains were sourced from the American Type Culture Collection and NRS strains from NARSA (Network on Antimicrobial Resistance in Staphylococcus aureus) via BEI Resources (www.beiresources.org), with clinical MSSA and MRSA isolates from Prof Graeme Nimmo, Queensland […]
(§11) Health Central Pathology. […]
as §2
(§12) Compound Assay Plate Preparation: Compounds were dissolved in DMSO at 10mM (CO-ADD screening) or 4 mM (follow up screening) and were plated in a 2-fold dose response from 20 to 0.156 µM or 200 to 0.006 µM respectively, with a maximum of 0.5% or 1% DMSO, final in the assay […]
(§13) plated in a 2-fold dose response from 200 to 0.006 µM, with a maximum of 1 % DMSO, final in the assay concentration. (in-house screening)
(§14) For all the bacterial assays, each strain was cultured in Cation-adjusted Mueller Hinton broth (CAMHB; Bacto Laboratories 212322) at 37 °C overnight. A sample of each culture was then diluted 40-fold in fresh CAMHB and incubated at 37 °C for 1.5–3 h. The resultant mid-log phase cultures were diluted with CAMHB (CFU mL−1 measured by OD600), then added to each well of the compound-containing plates (384-well non-binding surface (NBS) plates; Corning CLS3640), giving a cell density of 5 × 10^5 CFU mL−1 and a total volume of 50 μL. Plates were covered and incubated at 37 °C for 18 h without shaking. Inhibition of bacterial growth was determined measuring absorbance at 600 nm (OD600), using media only as negative control and bacteria without inhibitors as positive control. MIC values were determined as the lowest concentration at which the growth was inhibited at ≥80%. Colistin sulfate (Sigma C4461) and vancomycin HCl (Sigma 861987) were used as internal controls on each plate for Gram-negative and Gram-positive bacteria, respectively. […]

Series [4] has as its system Staphylococcus epidermidis ATCC 14990, type strain. Briefly: Antibacterial MIC assay, Gram-positive panel. The class given is cell-based. Conditions: Table S1 panel; n=4. Here is the method: as §9, §10, §11, §2, §12, §13, §14
The test system of series [5] is Enterococcus faecium ATCC 51559, MDR, VRE (VanA). Briefly: Antibacterial MIC assay, Gram-positive panel. The class given is cell-based. The note with it: Table S1 panel; n=2. Here is the method:
as §9, §10, §11, §2, §12, §13, §14

Series [6] relates to Staphylococcus aureus NRS 17, GISA. Briefly: Antibacterial MIC assay, Gram-positive panel. The format is cell-based. The note with it: Table S1 panel; n=2. The method, then:
as §9, §10, §11, §2, §12, §13, §14

Series [7] relates to Enterococcus faecium Clinical Isolate, VRE (VanA). Briefly: Antibacterial MIC assay, Gram-positive panel. The note with it: Table S1 panel; n=4. The class given is cell-based. The method, then: as §9, §10, §11, §2, §12, §13, §14
Series [8] deals with Enterococcus faecium ATCC 35667, type strain. Briefly: Antibacterial MIC assay, Gram-positive panel. The class given is cell-based. Conditions: Table S1 panel; n=4. Here is the method: as §9, §10, §11, §2, §12, §13, §14
For series [9], the system named is Enterococcus faecalis Clinical Isolate, VRE (VanB). Briefly: Antibacterial MIC assay, Gram-positive panel. Conditions: Table S1 panel; n=4. The class given is cell-based. The method, then: as §9, §10, §11, §2, §12, §13, §14
Series [10] relates to Enterococcus faecalis ATCC 29212, control strain. Briefly: Antibacterial MIC assay, Gram-positive panel. The format is cell-based. Conditions: Table S1 panel; n=4. Here is the method:
as §9, §10, §11, §2, §12, §13, §14

Series [11] deals with Staphylococcus aureus ATCC 43300 (MRSA). Briefly: microbe, parasite or virus in culture. The class given is cell-based. The note with it: CO‐ADD screening. The method, then:
(§15) All compounds submitted to CO‐ADD are initially screened against five bacterial strains (Staphylococcus aureus (MRSA), E. coli, Klebsiella pneumoniae, Pseudomonas aeruginosa, Acinetobacter baumannii) and two fungal strains (Candida albicans, Cryptococcus neoformans) at a single concentration (32 μg/mL or 20 μM) performed as a high‐throughput primary screening.[[11], [17a]] Any compounds that show significant growth inhibition against any of the tested strains at this step are then evaluated in a dose‐response assay against these same strains. […]
as §9, §10, §11, §2, §12, §13, §14

Series [12] concerns Pseudomonas aeruginosa ATCC 27853. Briefly: Antibacterial MIC assay. The class given is cell-based. Conditions: CO‐ADD screening. The method, then:
as §15, §9, §10, §11, §2, §12, §13, §14

Series [13] deals with Acinetobacter baumannii ATCC 19606. Briefly: Antibacterial MIC assay. Conditions: CO‐ADD screening. The class given is cell-based. The method, then:
as §15, §9, §10, §11, §2, §12, §13, §14

In series [14] the test system is Escherichia coli ATCC 25922. Briefly: Antibacterial MIC assay. Conditions: CO‐ADD screening. The class given is cell-based. Here is the method: as §15, §9, §10, §11, §2, §12, §13, §14
The subject of series [15] is HEK-293 ATCC CRL-1573 human embryonic kidney cells. The format is cell-based. The method, then:
As part of the CO‐ADD screening, all compounds that show any activity against a microbial strain are evaluated for their cytotoxicity against human embryonic kidney cells (HEK‐293) and for haemolysis against human red blood cells. None of the compounds tested for cytotoxicity (Pt1‐9 and Pd1) caused any significant cell death up to concentrations of 100 μM. […] We have also observed higher IC50 values for the methylated complexes Pt3 and Pt4 against HeLa cells in previous work.[16] […]
(§16) inhibitors as positive control.
(§17) Tamoxifen (Sigma T5648) was used
(§18) as internal control on each plate.
in a Neubauer haemocytometer. […]

The test system of series [16] is human red blood cells. Briefly: Haemolysis assay. The class given is cell-based. Here is the method: As part of the CO‐ADD screening, all compounds that show any activity against a microbial strain are evaluated for their cytotoxicity against human embryonic kidney cells (HEK‐293) and for haemolysis against human red blood cells. None of the compounds tested for cytotoxicity (Pt1‐9 and Pd1) caused any significant cell death up to concentrations of 100 μM. […] We have also observed higher IC50 values for the methylated complexes Pt3 and Pt4 against HeLa cells in previous work.[16]
as §5, §6, §7, §16, §17, §18
in a Neubauer haemocytometer.
incubated for 1 h at 37 °C, without shaking.
HC10 and HC50 (concentration at which 10%
for top, bottom and slope using Prism 8. […]

Series [17] deals with E. faecium ATCC 51559 MDR, VRE. Briefly: MIC in the presence of human serum (serum reversal). The format is cell-based, Enterococcus faecium. Conditions: 10% serum.
Description: as §1, §2, §3, §4, §5, §6, §7, §8

Series [18] has as its system Staphylococcus aureus ATCC 25923, MSSA. Briefly: Antibacterial MIC assay, Gram-positive panel. The format is cell-based. Conditions: Table S1 panel; n=4.
Description: (§19) Bis(dimethyl-η4)-((1Z,1'E,5Z,5'E)-(1,1'-bi(cyclooctadiene))diplatinum(II) (Pt14) Smiles: C1C=CCCC(=CC1)C1=CCCC=CCC1.C[Pt]C.C[Pt]C
(§20) InChIKey: PHIWIZAHOBWKFJ-HPCBIOCFSA-N
(§21) Link to selected data that was repeated to approve the identity of the compounds: https://dx.doi.org/10.14272/PHIWIZAHOBWKFJ-HPCBIOCFSA-N.1
as §10, §11, §2, §12, §13, §14

The test system of series [19] is Staphylococcus aureus VRS 1, VRSA (VanA). Briefly: Antibacterial MIC assay, Gram-positive panel. The class given is cell-based. Conditions: Table S1 panel; n=4.
Description: as §19, §20, §21, §10, §11, §2, §12, §13, §14

Series [20] relates to Cryptococcus neoformans H99 ATCC 208821. Briefly: Antifungal MIC (CO-ADD screening). The format is cell-based. Here is the method:
as §20
(§22) Health Central Pathology. Candida albicans (ATCC 90028, NCCLS 11), Cryptococcus neoformans
as §2, §3, §4

For series [21], the system named is Candida albicans ATCC 90028. Briefly: Antifungal MIC (CO-ADD screening). The class given is cell-based. The method, then: as §20, §22, §2, §3, §4
For series [22], the system named is S. aureus NRS 17 GISA. Briefly: MIC in the presence of human serum (serum reversal). The note with it: 50% serum. The format is cell-based, Staphylococcus aureus.
Description: as §1, §2, §3, §4, §5, §6, §7, §8

Series [23] relates to S. aureus ATCC 43300 MRSA. The series is described as above. The class given is cell-based, Staphylococcus aureus. The note with it: 50% serum.
Description: as §1, §2, §3, §4, §5, §6, §7, §8

Series [24] concerns E. coli lpxC (non‐efficient lipid A production mutant). Briefly: MIC against E. coli membrane mutants. The class given is cell-based, Escherichia coli. The note with it: Table S2. Here is the method: as §2, §3, §4, §5, §6, §7, §8
Series [25] relates to E. coli tolC (efflux pump deficient). Briefly: MIC against E. coli membrane mutants. The format is cell-based, Escherichia coli. The note with it: Table S2. Here is the method:
as §2, §3, §4, §5, §6, §7, §8

For series [26], the system named is Klebsiella pneumoniae ATCC 700603 (ESBL SHV‐18). The method, then: as §15, §9, §10, §11, §2, §12, §13, §14

As to `N.N.[Cl][Pt][Cl]` [cisplatin], the antimicrobial activity entry in series [1] is recorded as “no antimicrobial activity”.
`C1=CCCC=CCC1.COc1cc[c]([Pt][CH3])cc1` [Pt5]: the MIC in the presence of human serum in series [2], in series [17], in [22] and in [23] was over 200 µM each time. Moreover, the MIC (as a rule, the lowest concentration found to suppress growth) was 50 µM in series [3]; 50 µM in series [4]; 200 µM in [5]; 100 µM in series [6]; 200 µM in [7]; over 200 µM in [8]. Further, the MIC in series [9] was over 200 µM; in [10], over 200 µM; in series [18], 100 µM; in series [19], 200 µM. Besides, the “MIC Sa” value in [11] is over 20 µM. The “MIC Pa” value in series [12] is over 20 µM. Moreover, in [13], the “MIC Ab” value was over 20 µM. Moreover, the “MIC Ec” value in series [14] is over 20 µM. Further, the 50% cytotoxic concentration (CC50) (usually the concentration giving 50% cytotoxicity) in [15] was over 100 µM. The “Haemolysis HC10” value in series [16] (concentration inducing 10 % haemolysis) stood at 88.43 µM. The “Haemolysis HC50” value in series [16] (concentration inducing 50 % haemolysis) is over 100 µM. Moreover, the “MIC Cn” value in series [20] was found to be 20 µM. For the same compound, in series [21], the “MIC Ca” value was 10 µM. The same compound registered an MIC E. coli lpxC in [24] of over 200 µM. Also, in [25], the MIC E. coli TolC was over 200 µM. Moreover, the “MIC Kp” value in series [26] was over 20 µM.

For the origin of these results see PMC8596843, “Platinum Cyclooctadiene Complexes with Activity against Gram‐positive Bacteria” (Chemmedchem, 2021).
